Results as given in PubChem BioAssay (NCI).
“And” between values parts separate entries of the source, which are not always exact repeats. Equal values may be shown once.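 In this assay, cells in 96-well plates receive the compound at five concentrations for 48 hours. Endpoints are linearly interpolated between the surrounding concentrations. At the GI50, growth is halved. TGI marks complete inhibition of growth.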

How the values were obtained:
Assay in all cases: inhibition of tumour cell growth, NCI panel, 48 h
OVCAR-3 ovarian = tested on: OVCAR-3 ovarian
SN12C renal = tested on: SN12C renal
HCC-2998 colon = tested on: HCC-2998 colon
M14 melanoma = tested on: M14 melanoma
HT29 colon = tested on: HT29 colon
SK-MEL-28 melanoma = tested on: SK-MEL-28 melanoma
NCI-H23 lung = tested on: NCI-H23 lung
NCI-H460 lung = tested on: NCI-H460 lung
MCF7 breast = tested on: MCF7 breast
K-562 leukemia = tested on: K-562 leukemia

SMILES	TGI (OVCAR-3 ovarian) [µM]	TGI (SN12C renal)	TGI (HCC-2998 colon)	TGI (M14 melanoma)	TGI (HT29 colon) [µM]	TGI (SK-MEL-28 melanoma) [µM]	TGI (NCI-H23 lung) [µM]	TGI (NCI-H460 lung) [µM]	TGI (MCF7 breast) [µM]	TGI (K-562 leukemia) [µM]	GI50 (SN12C renal)	GI50 (NCI-H460 lung)	GI50 (MCF7 breast) [µM]	GI50 (OVCAR-3 ovarian) [µM]	GI50 (HCC-2998 colon)	GI50 (HT29 colon) [µM]	GI50 (SK-MEL-28 melanoma) [µM]	GI50 (NCI-H23 lung) [µM]	GI50 (K-562 leukemia) [µM]
Cc1cc(=O)n2c3c(c4c(cc13)c(CN(C)C)cc(=O)n4C)OC2	80.1	> 100 µM	35.9 µM	31.2 µM	> 45.9	> 85.8	50.2	> 100	> 60.5	> 100	–	–	–	–	–	–	–	–	–
O=c1[nH]c2cc([N+](=O)[O-])c(N/N=C/c3ccc(Cl)cc3Cl)c([N+](=O)[O-])c2[nH]1	35.3	> 100 µM	–	> 100 µM	> 100	> 100	> 100	> 100	> 100	> 100	–	–	–	–	–	–	–	–	–
O=S(=O)(O)c1ccc2c(N=Nc3ccccc3)c(O)ccc2c1	> 100	> 100 µM	> 100 µM	> 100 µM	> 100	> 100	> 100	> 100	> 100	> 100	–	–	–	–	–	–	–	–	–
Cc1ccc(C(=O)Nc2ncn(C3CC(O)C(CO)O3)c(=O)n2)cc1 (configuration not stated)	> 56.5	> 100 µM	> 100 µM	–	> 100	> 100	> 100	> 100	> 100	> 100	–	–	–	–	–	–	–	–	–
CCCCCCCCCCCCSC(=S)c1c(C)[nH]n(CCCCCCCCCCCC)c1=O	> 100	> 100 µM	> 100 µM	–	> 100	> 100	> 100	> 100	–	> 100	–	–	–	–	–	–	–	–	–
COC(=O)c1ccc2c(c1)sc1nc(-c3ccc(OC)cc3)cn12	> 100	> 100 µM	> 100 µM	> 100 µM	> 100	> 100	> 100	> 100	> 100	> 100	–	–	–	–	–	–	–	–	–
COc1cccc(NC(=O)CC(=O)NN2C(=O)/C(=C/c3ccc(N(CCC#N)CCC#N)cc3)N=C2c2cc([N+](=O)[O-])ccc2Cl)c1	> 100	> 100 µM	> 100 µM	> 100 µM	–	> 100	> 100	–	–	> 100	–	–	–	–	–	–	–	–	–
N#Cc1c(-c2ccc(Cl)cc2)c2c([nH]c1=O)-c1cc([N+](=O)[O-])ccc1CCC2	31.8	34.7 µM	35.7 µM	73.4 µM	75.5	63.6	36.2	42.5	83	> 100	–	–	–	–	–	–	–	–	–
C=C1CC2C3C=C(C)C4=CC(=O)CC[C@]4(C)C3CC[C@]2(C)[C@@]1(OC(C)=O)C(C)=O (some centres not stated)	–	> 100 µM	–	–	–	–	–	> 100	> 100	–	1.16 µM	3.69 µM	4.16	–	–	–	–	–	–
COc1ccc2c(c1)CCCc1c-2nc2ccccc2c1N	27.5	17.9 µM	3.34 µM	21.1 µM	13.7	25.5	31.6	16.9	24.9	58.5	–	–	–	–	–	–	–	–	–
Cn1c2cn[nH]c(=O)c2c2ccc3ccccc3c21	> 100	> 100 µM	–	> 100 µM	> 100	–	67.2	> 100	> 100	> 100	–	–	–	–	–	–	–	–	–
COP(=O)(OC)[C@H](O)[C@H]1C[C@@H]1c1ccccc1	> 100	–	> 100 µM	> 100 µM	> 100	> 100	> 100	> 100	> 100	> 100	–	–	–	–	–	–	–	–	–
COc1ccc(N=Cc2ccc(N(CCC#N)S(=O)(=O)c3ccccc3)cc2C)cc1	> 100	> 100 µM	> 100 µM	71.5 µM	> 100	> 100	> 100	> 100	–	> 100	–	–	–	–	–	–	–	–	–
C[C@H]1CCC/C=C/[C@@H]2C[C@H](O)C[C@H]2[C@H](O)/C=C/C(=O)O1	–	3.95 µM and 0.491 µM	0.674 µM and 0.322 µM	6.57 µM and 0.738 µM	–	–	–	–	–	–	0.0294 µM and 0.0846 µM and 0.0485 µM	0.036 µM and 0.0837 µM and 0.0828 µM	0.0417	0.0382	0.0623 µM and 0.054 µM	0.0224	0.0292	0.0531	0.236
O=C(O)CCCN=C(C1=C(O)C(=O)N(c2ccccc2)C1=O)c1ccccc1	> 100	> 100 µM	> 100 µM	> 100 µM	> 100	> 100	> 100	> 100	> 100	> 100	–	–	–	–	–	–	–	–	–
CCN(CCO)CCNc1ccc(C)c2sc3ccccc3c(=O)c12	23.3	23.9 µM	5.2 µM	3.23 µM	6.31	3.77	21.3	3.88	3.24	11.9	–	–	–	–	–	–	–	–	–
